Source: patent US12594261B2, “Use of heterocyclic derivatives with cardiomyocyte proliferation activity for treatment of heart diseases” (SHANGHAI EAST HOSPITAL (EAST HOSPITAL, TONGJI UNIVERSITY …, priority 2019, dated 2026)
Entries after “also recorded” stand apart in the source; their conditions may differ. Read-outs that look alike come from different tables or passages of the source.

Legend:
[1] = test system: neonatal rat ventricular myocytes (NRVMs); experiment: Myocyte proliferation assay (EdU) in neonatal rat ventricular myocytes; assay type: cell-based; conditions: for activation at 1 µM / activation at 3 µM / activation at 10 µM: Rattus norvegicus, Ventricular myocyte, growth relative to blank myocyte growth without compound added; for activation at 1 µM: 1 uM compound; for activation at 3 µM: 3 uM compound; for activation at 10 µM: 10 uM compound
Procedure: 1. Isolation of and Culture Neonatal Rat Ventricular Myocytes (NRVMs)
Ventricles from neonatal rats were separated from the atria, cut into small pieces (about 2×2 mm^2) and then dissociated in Ca^2+-free HBSS containing 0.125 mg ml-1 trypsin (Gibco), 10 μg ml-1 DNase II (Sigma) and 0.1 mg ml-1 collagenase type IV (Sigma). The digestion was carried out under constant stirring at 37° C. for 5 min. The supernatant was collected with FBS (Gibco) after each digestion period. After digestion, the collected supernatant was centrifuged at 1000 g for 10 min at room temperature, and then cell pellets were resuspended in DMEM (Gibco) supplemented with 10% FBS and with 100 uM 5-bromo-2′-deoxyuridine (Sigma). The resuspended cells were passed through a cell strainer ([…], BD Falcon) and seeded onto 100-mm plastic dishes for 2 h at 37° C. in a 5% CO2 to remove fibroblasts, the supernatant was then collected and plated onto 1% gelatin (Sigma)-coated dishes. 24 h after the seeding, the medium was changed to DMEM (Gibco) containing 2% FBS (Gibco), 1% insulin-transferrin-selenium (ITS; Gibco), 1% Penicillin-Streptomycin (Gibco). After 24 hours of low serum culture, remove the medium with DMEM (Gibco) containing 6% FBS (Gibco), 1% insulin-transferrin-selenium (ITS; Gibco), 1% Penicillin-Streptomycin (Gibco), different concentrations of compounds (the compounds were pre-diluted in the medium and the drug concentration was 10 uM, 3 uM, 1 uM, fully mixed). After 36 h add Edu substrate (Invitrogen) according to the manufacturer's guidelines, and then after 12 h cell can be used.
2.1. Immobilization: Remove the medium and fix the cells with […] in 200 ul (whichever is covered) for 15 min and wash the cells twice with 500 ul of PBS for 5 min each time.
2.2. Broken membrane: Add 200 ul of 0.3% Triton-X 100 (diluted in PBS) to each well, incubate for 10-15 min at room temperature (the time should not be too long), and wash the cells twice with 500 ul of PBS for 5 min each time.
2.3. Blocking: Add 200 ul of 10% normal goat serum (diluted with 0.1% PBST) to each well, incubate for 1 h at room temperature, and wash twice with 500 ul of 0.1% PBST for 5 min each time.
2.4. Primary antibody: dilute the primary antibody (abcam, ab8295) to blocking solution at a ratio of 1:200, add 100 ul per well, incubate for 1 h at room temperature (may be slightly longer than 2-3 h), wash the cells twice with 500 ul 0.1% PBST for 5 min each time.
2.5. Secondary antibody: Dilute the fluorescently labeled secondary antibody (abcam, ab150117) into blocking solution at a ratio of 1:200, add 100 ul per well, incubate for 1 h at room temperature (the time should not be too long), wash the cells twice with 0.1% PBST for 5 min each time, pay attention to the whole process. Protected from light.
2.6. Edu staining (Invitrogen C10338)
2.6.1 Prepare Click-iT® reaction cocktail according to Table 3. It was important to add the ingredients in the order listed in the table; otherwise, the reaction would not proceed optimally. Use the Click-iT® reaction cocktail within 15 minutes of preparation.
2.6.2 Add 0.1 mL of Click-iT® reaction cocktail to each well containing a coverslip. Rock the plate briefly to ensure that the reaction cocktail is distributed evenly over the coverslip.
2.6.3 Incubate the plate for 30 minutes at room temperature, protected from light.
2.6.4 Remove the reaction cocktail, then wash the cells twice with 0.1% PBST for 5 min each time.
2.7. DAPI staining: DAPI stain was diluted to PBS at a ratio of 1:1000, 100 ul per well, incubated for 30 min at room temperature, and the cells were washed twice with PBS for 5 min each.
We used Molecular Devices' Image Xpress Micro Confocal for high-throughput photo and data analysis.

[2] = test system: Myocardial Infarction (left coronary artery ligation); experiment: In vivo test, myocardial infarction (heart infarct) model; set-up: species or system C57/BL6 mice
Procedure: 6-week-old C57/BL6 mice were anesthetized with 1% isoflurane in a chamber. The mice were placed in a left supine position on a heating pad (37° C.), and the heart was exposed via thoracotomy at the fourth left intercostal space. The pericardium was then opened, and the left coronary artery was permanently ligated with a 7-0 suture. Ligation was considered successful when the left ventricle became pale. From one week after surgery, the compound L41 or control solvent were injected via tail vein every other day. The mice were then euthanized after 6 weeks of injection, and the hearts were subjected to histology.
2. Injury Region Division
The cardiac tissue regions used for image characterization are described as the whole heart, infarct zone (left ventricle free wall), border zone (left ventricle anterior and posterior walls), or distal zone (interventricular septum).
For histology studies, hearts were collected at the indicated time points. […]
Hearts were sectioned at a thickness of 8 μm, and slides were created with 5 sections per slide. […] Scar size was quantified by examining serial sections from the apex to the ligation site and calculating the average percent fibrotic area of the total area using Image J software based on Masson's trichrome staining.

human GSK3 beta = target: T1, human GSK3 beta (Homo sapiens, UniProt P49841); experiment: GSK3 beta enzyme assay (ADP-Glo); assay type: biochemical
T1 construct: Recombinant full-length human GSK3 beta (expressed in Sf9 insect cells with an N-terminal His tag); His tag (N); purchased SignalChem G09-10H; host or cells: Sf9 insect cells
T1 sequence (P49841 whole entry): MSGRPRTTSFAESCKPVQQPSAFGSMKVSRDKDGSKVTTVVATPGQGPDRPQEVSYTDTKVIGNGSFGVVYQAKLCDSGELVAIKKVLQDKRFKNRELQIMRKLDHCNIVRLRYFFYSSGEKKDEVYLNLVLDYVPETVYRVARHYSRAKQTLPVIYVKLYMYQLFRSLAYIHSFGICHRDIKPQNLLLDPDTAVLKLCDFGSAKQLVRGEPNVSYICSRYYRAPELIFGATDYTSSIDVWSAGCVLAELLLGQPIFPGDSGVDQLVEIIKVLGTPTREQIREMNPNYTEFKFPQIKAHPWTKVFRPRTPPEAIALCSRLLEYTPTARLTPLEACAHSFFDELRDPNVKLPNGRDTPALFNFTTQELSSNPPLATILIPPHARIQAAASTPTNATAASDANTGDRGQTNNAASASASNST
Procedure: 1. GSK3 Beta Enzyme Assay
The ability of compounds to inhibit human GSK3 beta kinase activities was determined using a commercially available ADP-Glo™ Kinase Assay kit (Promega, Cat #V9102) according to the manufacturer's protocol. The ADP-Glo™ Kinase Assay is a luminescent ADP detection assay that provides a universal, homogeneous, high-throughput screening method to measure kinase activity by quantifying the amount of ADP produced during a kinase reaction. The ADP-Glo™ Kinase Assay can be used to monitor the activity of virtually any ADP-generating enzymes (e.g., kinases or ATPases).
Recombinant full-length human GSK3 beta (expressed in Sf9 insect cells with an N-terminal His tag) was purchased from SignalChem (SignalChem, Cat #G09-10H). The GSK3 substrate peptide (sequence: […](pS)EDEEE) was purchased from SignalChem (SignalChem, Cat #G50-58). This assay, run in a 384-well plate format, is a generic method for measuring kinase activities using an ADP-Glo Kinase Assay Kit. The basic assay procedure involves two steps: (1) Enzymatic step: inhibitors are incubated with the kinase and then ATP (included in the ADP-Glo Kinase Assay Kit) and the GSK3 substrate peptide are added to start the enzymatic reaction; (2) Detection step: after the kinase reaction, first ADP-Glo™ Reagent is added to terminate the kinase reaction and deplete the remaining ATP. Second, the Kinase Detection Reagent is added to simultaneously convert ADP to ATP and allow the newly synthesized ATP to be measured using a luciferase/luciferin reaction. The light generated is measured using a luminometer.
Briefly, GSK3 beta (4 nM) in the enzymatic buffer solutions (40 mM Tris, 7.5, 20 mM MgCl2, 0.1 mg/ml BSA, 50 μM DTT) were mixed with various concentrations of inhibitors (dissolved in 100% DMSO). These solutions were incubated for 30 minutes at 25° C., and subsequently a mixture of substrate peptide and ATP was added with the final peptide and ATP concentrations at 13 μM and 25 μM, respectively. The final reaction mixture of enzyme-substrate-ATP-compound was incubated for 60 minutes at 25° C.
Afterwards ADP-Glo™ Reagent was added and the mixture was incubated at 25° C. for 60 minutes. Then Kinase Detection Reagent was added and the final mixture was incubated at 25° C. for 60 minutes. The luminescence signal of the final solution was measured on an Envision instrument (PerkinElmer). The percent (%) inhibition at each concentration of a compound is calculated relative to the luminescence signal in the Max and Min control wells contained within each assay plate. […] The concentrations and percent inhibition values for a test compound are plotted and the concentration of the compound required to achieve 50% inhibition (IC50) is determined with a four-parameter logistic dose response equation.

Row | Compound | activation at 1 µM [1] [%] | activation at 3 µM [1] [%] | activation at 10 µM [1] [%] | myocyte growth / proliferation (EDU proliferation index), in words ([1]; neonatal rat cardiomyocytes, FIGS. 3-5) | cardiomyocyte proliferation in the heart infarct model ([2]; mouse, in vivo) | infarct size in the heart infarct model ([2]; tail vein injection every other day from one week after surgery, 6 weeks, FIG. 6 and 7) | IC50 (human GSK3 beta; read-out: GSK3b IC50) [µM] | IC50 (human GSK3 beta) [µM]
1 | O=C1NC(Nc2ccccc2)=N/C1=C\c1ccc2c(c1)OCO2 [Example L41, (Z)-5-(benzo[d][1,3]dioxol-5-ylmethylene)-2-(phenylamino)-3,5-dihydro-4H-imidazol-4-one] | < 10 | < 10 | < 10 | potent agonist for promoting myocyte growth or proliferation; also recorded: promotes myocyte growth; also recorded: promotes proliferation of neonatal rat cardiomyocytes; also recorded: potent activity | superior cardiomyocyte proliferation activity | reduction in infarct size | – | –
2 | O=C1/C(=C/c2ccc3c(c2)OCO3)N=C(N(Cc2ccccc2)c2ccccc2)N1Cc1ccccc1 [TJU-B076, (Z)-5-(benzo[d][1,3]dioxol-5-ylmethylene)-3-benzyl-2-(benzyl(phenyl)amino)-3,5-dihydro-4H-imidazol-4-one] | < 10 | < 10 | > 50 | – | – | – | > 10 | –
3 | CN(C1=N/C(=C\c2ccc3c(c2)OCO3)C(=O)N1)c1ccccc1 [TJU-B115, (Z)-5-(benzo[d][1,3]dioxol-5-ylmethylene)-2-(methyl(phenyl)amino)-3,5-dihydro-4H-imidazol-4-one] | < 10 | > 50 | 10 to 50 | – | – | – | > 10 | –
4 | CN1C(=O)/C(=C/c2ccc3c(c2)OCO3)N=C1N(C)c1ccccc1 [TJU-B116, (Z)-5-(benzo[d][1,3]dioxol-5-ylmethylene)-3-methyl-2-(methyl(phenyl)amino)-3,5-dihydro-4H-imidazol-4-one] | < 10 | < 10 | < 10 | – | – | – | > 10 | –
5 | CCN(C1=N/C(=C\c2ccc3c(c2)OCO3)C(=O)N1)c1ccccc1 [TJU-B182, (Z)-5-(benzo[d][1,3]dioxol-5-ylmethylene)-2-(ethyl(phenyl)amino)-3,5-dihydro-4H-imidazol-4-one] | 10 to 50 | 10 to 50 | 10 to 50 | – | – | – | > 10 | –
6 | CC(=O)N(C1=N/C(=C\c2ccc3c(c2)OCO3)C(=O)N1)c1ccccc1 [TJU-B183, (Z)—N-(4-(benzo[d][1,3]dioxol-5-ylmethylene)-5-oxo-4,5-dihydro-1H-imidazol-2-yl)-N-phenylacetamide] | < 10 | 10 to 50 | > 50 | – | – | – | – | > 10
